From US20250230193A1, “CYCLIC COMPOUND HAVING SELECTIVE KRAS INHIBITORY EFFECT ON HRAS AND NRAS” (CHUGAI SEIYAKU KABUSHIKI KAISHA, priority 2022, published 2025)
Where two headings read alike, the source gives them in different places. *1 amine or outer side, *2 acyl side, *3 side chain or, on linkers, in order; H or OH if unused. Where a SMILES comes first, the peptide text is derived from it. Bridges are numbered along the chain shown (N, C = ends). [ ]: non-standard residue; d: D form. The star is where a group is joined. X6 = CC(C)(C)CCN([C@@H](Cc1ccc(C(F)(F)F)cc1)C(=O)[*:2])[*:1]; hPhe(3-Cl-4-CF3) = N[C@@H](CCc1ccc(C(F)(F)F)c(Cl)c1)C(=O)O; NMeGly(cPent) = CN[C@H](C(=O)O)C1CCCC1; NMeD = CN[C@@H](CC(=O)O)C(=O)O; NMeL = CN[C@@H](CC(C)C)C(=O)O; Morpholide = C1CN(*)CCO1; Ac5c = NC1(C(=O)O)CCCC1; Sar = CNCC(=O)O

Tests used:
[1] = target: GDP-bound NRAS wild-type protein (Homo sapiens, UniProt P01111); assay: Binding to NRAS by surface plasmon resonance (SPR), Single Cycle Kinetics; settings: for NRAS/KRAS (ratio of KD value with respect to NRAS to KD value with respect to KRAS) / NRAS/KRAS (ratio of KD value for NRAS to KD value for KRAS): GDP-bound NRAS wild-type vs GDP-bound KRAS wild-type
Sequence of GDP-bound NRAS wild-type protein (P01111 whole entry): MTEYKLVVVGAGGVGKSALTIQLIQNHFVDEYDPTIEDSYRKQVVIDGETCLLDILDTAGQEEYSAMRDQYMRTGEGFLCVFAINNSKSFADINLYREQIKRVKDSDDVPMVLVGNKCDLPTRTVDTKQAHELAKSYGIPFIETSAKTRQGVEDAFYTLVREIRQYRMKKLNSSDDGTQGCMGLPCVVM

[2] = target: GDP-bound HRAS wild-type protein (Homo sapiens, UniProt P01112); assay: Binding to HRAS by surface plasmon resonance (SPR), Single Cycle Kinetics; settings: for HRAS/KRAS (ratio of KD value with respect to HRAS to KD value with respect to KRAS) / HRAS/KRAS (ratio of KD value for HRAS to KD value for KRAS): GDP-bound HRAS wild-type vs GDP-bound KRAS wild-type
Sequence of GDP-bound HRAS wild-type protein (P01112 whole entry): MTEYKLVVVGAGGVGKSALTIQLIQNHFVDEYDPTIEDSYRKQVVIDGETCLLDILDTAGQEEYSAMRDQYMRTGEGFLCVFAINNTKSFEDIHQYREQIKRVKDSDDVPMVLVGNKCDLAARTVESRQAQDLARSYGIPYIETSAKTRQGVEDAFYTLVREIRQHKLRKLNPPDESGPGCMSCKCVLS

[3] = test system: human lung cancer strain NCI-H441

Row | IC50 [3] [nM] | SMILES | NRAS/KRAS (ratio of KD value for NRAS to KD value for KRAS) ([1]; KD ratio, SPR) | HRAS/KRAS (ratio of KD value for HRAS to KD value for KRAS) ([2]; KD ratio, SPR) | also measured
1 | 28.9 | CCO[C@@H]1C[C@H]2C(=O)NC3(CCC3)C(=O)N(C)[C@@H](C3CCCC3)C(=O)N(C)[C@H](C(=O)N(C)CC)CC(=O)N(C)[C@H]3CCCCCc4ccc(cc4)C[C@@H](C(=O)N(C)CC(=O)N[C@@H](CCc4cc(F)c(C(F)(F)F)c(F)c4)C(=O)N2C1)N1CC/C=C\C[C@@H](C1=O)N(C)C(=O)CN(C)C(=O)[C@H]([C@@H](C)CC)NC3=O [PP2117] | – | – | NRAS/KRAS (ratio of KD value with respect to NRAS to KD value with respect to KRAS) ([1]; SPR): A (a compound having 10 or more and less than 20 is denoted as A); HRAS/KRAS (ratio of KD value with respect to HRAS to KD value with respect to KRAS) ([2]; SPR): A (a compound having 10 or more and less than 20 is denoted as A)
2 | 5.6 | CCO[C@@H]1C[C@H]2C(=O)NC3(CC(C)(C)C3)C(=O)N(C)[C@@H](C3CCCC3)C(=O)N(C)[C@H](C(=O)N(C)CC)CC(=O)N(C)[C@@H](CC3CC3)C(=O)N[C@@H]([C@@H](C)CC)C(=O)N(C)CC(=O)N(C)[C@H]3C/C=C\CCN(C3=O)[C@@H](Cc3ccc(C(F)(F)F)cc3)C(=O)N(C)CC(=O)N[C@@H](CCc3ccc(C(F)(F)F)c(OC)c3)C(=O)N2C1 [PP1678] | A (a compound having 10 or more and less than 20 is denoted as A) | B (a compound having 3 or more and less than 10 is denoted as B) | –
3 | 6.7 | CCCN(C)C(=O)[C@@H]1CC(=O)N(C)[C@@H](COC)C(=O)N[C@@H]([C@@H](C)CC)C(=O)N(C)CC(=O)N(C)[C@H]2C/C=C\CCN(C2=O)[C@@H](Cc2ccc(C(F)(F)F)cc2)C(=O)N(C)CC(=O)N[C@@H](CCc2cc(F)c(C(F)(F)F)c(F)c2)C(=O)N2C[C@H](OCC)C[C@H]2C(=O)NC2(CCC2)C(=O)N(C)[C@@H](C2CCCC2)C(=O)N1C [PP1706] | A (a compound having 10 or more and less than 20 is denoted as A) | A (a compound having 10 or more and less than 20 is denoted as A) | –

Second part, the molecule before the results:

Row | SMILES | IC50 [3] [nM] | NRAS/KRAS (ratio of KD value for NRAS to KD value for KRAS) ([1]; KD ratio, SPR) | HRAS/KRAS (ratio of KD value for HRAS to KD value for KRAS) ([2]; KD ratio, SPR) | also measured
4 | CC[C@H](C)[C@@H]1NC(=O)[C@H](CC(C)C)N(C)C(=O)C[C@@H](C(=O)N2CCOCC2)N(C)C(=O)[C@H](C2CCCC2)N(C)C(=O)C2(CCCC2)NC(=O)[C@@H]2CCCN2C(=O)[C@H](CCc2ccc(C(F)(F)F)c(Cl)c2)NC(=O)CN(C)C(=O)[C@H](Cc2ccc(C(F)(F)F)cc2)N(CCC(C)(C)C)C(=O)CN(C)C(=O)CN(C)C1=O [PP0127] ([NMeL]I[Sar][Sar][X6][Sar][hPhe(3-Cl-4-CF3)]P[Ac5c][NMeGly(cPent)][NMeD]-Morpholide; lactam N-11) | 25.3 | – | – | NRAS/KRAS (ratio of KD for GDP-bound NRAS wild-type to KD for KRAS) ([1]; KD ratio NRAS/KRAS, SPR): C (A compound having a KD ratio of 0.1 or more and less than 3 is denoted as C); HRAS/KRAS (ratio of KD for GDP-bound HRAS wild-type to KD for KRAS) ([2]; KD ratio HRAS/KRAS, SPR): C (A compound having a KD ratio of 0.1 or more and less than 3 is denoted as C)
5 | CC[C@H](C)[C@@H]1NC(=O)[C@H](CC(C)C)N(C)C(=O)C[C@@H](C)N(C)C(=O)[C@H](C2CCCC2)N(C)C(=O)C2(CCC2)NC(=O)[C@@H]2CCCN2C(=O)[C@H](CCc2cc(F)c(C(F)(F)F)c(F)c2)NC(=O)CN(C)C(=O)[C@H](Cc2ccc(C(F)(F)F)cc2)N2CC/C=C\C[C@@H](C2=O)N(C)C(=O)CN(C)C1=O [PP1099] | 68.1 | – | – | NRAS/KRAS (ratio of KD value with respect to NRAS to KD value with respect to KRAS) ([1]; KD ratio, SPR): B (a compound having 3 or more and less than 10 is denoted as B); HRAS/KRAS (ratio of KD value with respect to HRAS to KD value with respect to KRAS) ([2]; KD ratio, SPR): A (a compound having 10 or more and less than 20 is denoted as A)
6 | CCC[C@H]1C(=O)N[C@@H]([C@@H](C)CC)C(=O)N(C)CC(=O)N(C)[C@H]2C/C=C\CCN(C2=O)[C@@H](Cc2ccc(C(F)(F)F)cc2)C(=O)N(C)CC(=O)N[C@@H](CCc2cc(Cl)c3c(ccn3C)c2)C(=O)N2C[C@H](OCC)C[C@H]2C(=O)NC2(CC(C)(C)C2)C(=O)N(C)[C@@H](C(CC)CC)C(=O)N(C)[C@H](C(=O)N(C)C)CC(=O)N1C [PP2896] | – | – | – | NRAS/KRAS (ratio of KD value with respect to GDP-bound NRAS wild-type protein to KD value with respect to KRAS) ([1]; KD ratio NRAS/KRAS, class symbols): A (a compound having 10 or more and less than 20 is denoted as A); HRAS/KRAS (ratio of KD value with respect to GDP-bound HRAS wild-type protein to KD value with respect to KRAS) ([2]; KD ratio HRAS/KRAS, class symbols): A (a compound having 10 or more and less than 20 is denoted as A); IC50 ([3]; read-out: NCI-H441 IC50, NCI-H441 cells, 4 days, CellTiter-Glo): 79.3 nM
7 | CC[C@H](C)[C@@H]1NC(=O)[C@H](CC2CC2)N(C)C(=O)C[C@@H](C(=O)N(C)C)N(C)C(=O)[C@H](C2CCCC2)N(C)C(=O)C2(CC(C)(C)C2)NC(=O)[C@@H]2C[C@H](C)CN2C(=O)[C@H](CCc2cc(F)c(C(F)(F)F)c(F)c2)NC(=O)CN(C)C(=O)[C@H](Cc2ccc(C(F)(F)F)cc2)N2CC/C=C\C[C@@H](C2=O)N(C)C(=O)CN(C)C1=O [PP1660] | 4.3 | A (a compound having 10 or more and less than 20 is denoted as A) | A (a compound having 10 or more and less than 20 is denoted as A) | –
